Among the data in patent US9556202B2, “Sulfonamide derivatives and methods of use thereof for improving the pharmacokinetics of a drug” (MERCK SHARP & DOHME CORP., priority 2012, dated 2017) are IC50 values, retold here.

The target in one experiment is T1, CYP3A4 (Homo sapiens, UniProt P08684).
T1 construct: 0.01 mg/mL protein human liver microsomes (BD Gentest); tissue BD Gentest; host or cells: human liver microsomes
Kind of experiment: IC50 vs CYP3A by inhibition of lopinavir metabolism in human liver microsomes. The format is biochemical. The note with it: human liver microsomes 0.01 mg/mL, 1.5 μM lopinavir, 8 min 37° C.; test conc. e.g. 0.098-100 nM; unit inferred; read-out: 3A4(LPV). Here is the method:
Determination of IC50 Vs CYP3A by Measurement of Inhibition of Lopinavir Metabolism
This assay was performed in a standard 96-well plate design. IC50 values were calculated from the percent inhibition observed for each test compound at 6 concentrations (for example, 0.098, 0.391, 1.56, 6.25, 25 and 100 nM). The incubation substrate mix contains 1.5 μM lopinavir, 0.01 mg/mL protein human liver microsomes (BD Gentest), 1 mM NAPDH, 3.3 mM MgCl2 and 100 mM potassium phosphate buffer (pH 7.4). The production of the sum of three hydroxylated metabolites (M2: 6-hydroxy lopinavir, M3: 4-hydroxy lopinavir, M4: 4-hydroxy lopinavir (epimer of M3), Kumar et al., 1999) was determined after incubation for 8 min at 37° C. Quantitation of the metabolite peak area ratio against an internal standard (tolbutamide) was determined by LC/MS/MS analysis following acetonitrile treatment of the incubations.
Samples were analyzed in the MRM mode with a SCIEX API-4000 mass spectrometer (Applied Biosystems, Foster City, Calif.), with a Shimadzu LC-20 AD pump (Shimadzu corporation, Kyoto, JP) and a CTC PAL autosampler (Agilent Technologies, Switzerland). A Phenomenex, Luna, 5 μm, 100 A, 2.00×30 mm HPLC column was used for the separation. The mobile phases were: (A) 0.1% formic acid in water and (B) 0.1% formic acid in acetonitrile. The binary gradient was as follows.
The peak area ratio of the analyte to the internal standard was used to quantify the metabolite. The values of peak area ratios in the presence of test compound were compared to those of maximum or minimum controls and were expressed as % inhibition by interpolating between the maximum and minimum peak area ratios. Incubations with no inhibitor were defined as the maxima and with 5 μM ketoconazole were defined as the minima.
The following equation was used to calculate the % inhibition: [1−[(X−Low control)/(High control−Low control)]]*100
For the IC50 calculation, SigmaPlot was used to plot the mean % inhibition versus the test compound concentrations and for non-linear regression analysis of the data. Depending on the range of data points defining the inhibition curve, the data may have been fit to the 4-parameter logistic equation.
Background: Microsomes from liver hold many membrane-bound enzymes, among them those of drug oxidation.

A further experiment has as its target T2, human CYP11B2 (Homo sapiens, UniProt P19099).
T2 construct: expressed in transfected cells
T2 sequence (P19099 25-503): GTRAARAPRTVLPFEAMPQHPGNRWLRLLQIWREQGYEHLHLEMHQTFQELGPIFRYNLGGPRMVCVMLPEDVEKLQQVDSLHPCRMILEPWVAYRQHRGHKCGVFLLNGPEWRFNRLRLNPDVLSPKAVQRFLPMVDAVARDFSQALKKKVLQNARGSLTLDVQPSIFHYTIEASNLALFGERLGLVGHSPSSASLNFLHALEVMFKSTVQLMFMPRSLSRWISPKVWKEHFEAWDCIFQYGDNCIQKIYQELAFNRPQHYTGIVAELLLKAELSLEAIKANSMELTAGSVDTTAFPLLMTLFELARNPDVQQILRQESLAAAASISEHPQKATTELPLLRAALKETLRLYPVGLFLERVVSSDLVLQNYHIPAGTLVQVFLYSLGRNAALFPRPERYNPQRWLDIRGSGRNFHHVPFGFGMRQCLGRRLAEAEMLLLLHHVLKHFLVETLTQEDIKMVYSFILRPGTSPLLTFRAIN
Kind of experiment: IC50 vs CYP11B2 by aldosterone synthesis in V79 cells (HTRF). The format is cell-based. Particulars: V79 cells expressing human CYP11B2, 750 nM DOC, test conc. 0.5-10000 nM, unit inferred. The protocol:
Determination of IC50 Vs CYP11B1/CYP11B2 by Measurement of Cortisol/Aldosterone Synthesis
This assay was performed in a standard 384-well plate design using cultured V79 cells stably expressing human CYP11B1 or human CYP11B2. Test compounds at 10 concentrations (for example, 10000, 3333.3, 1111.1, 370.4, 123.5, 41.2, 13.7, 4.6, 1.5 and 0.5 nM) were added in 384-well plate after the cell-seeding procedure. The incubation substrate contains 1500 nM RSS for CYP11B1 assay/750 nM DOC for CYP11B2 assay. The Cortisol/Aldosterone production of cell culture supernatant was determined by Cortisol/Aldosterone HTRF kit after for about 15 hours incubation at RT (protect from light). IC50 values were calculated from the percent inhibition observed for each test compound at 10 concentrations.
The assay plate was read using Envision (Perkin Elmer, Waltham, Mass.) at 665 nm and 590 nm (using Filter Barcode of 217#, 205#; Mirror Barcode of 446#).
Data are analyzed using Assay Data Analyzer. All ratio data (665 nm/590 nm) are back calculated according to the standard curve, resulting in Cortisol/Aldosterone concentrations. IC50 values are reported as the Inflection Point (IP) of a four parameter fit of the titration data.
The following equation was used to calculate the % inhibition: % Activity=100×{1−(Sample_back calculated Cortisol/Aldosterone concentration−LC_back calculated Cortisol/Aldosterone concentration)/(HC_back calculated Cortisol/Aldosterone concentration−LC_back calculated Cortisol/Aldosterone concentration)} Curve Fitting: Four Parameter Logistic: […]

T1 sequence (P08684 2-503): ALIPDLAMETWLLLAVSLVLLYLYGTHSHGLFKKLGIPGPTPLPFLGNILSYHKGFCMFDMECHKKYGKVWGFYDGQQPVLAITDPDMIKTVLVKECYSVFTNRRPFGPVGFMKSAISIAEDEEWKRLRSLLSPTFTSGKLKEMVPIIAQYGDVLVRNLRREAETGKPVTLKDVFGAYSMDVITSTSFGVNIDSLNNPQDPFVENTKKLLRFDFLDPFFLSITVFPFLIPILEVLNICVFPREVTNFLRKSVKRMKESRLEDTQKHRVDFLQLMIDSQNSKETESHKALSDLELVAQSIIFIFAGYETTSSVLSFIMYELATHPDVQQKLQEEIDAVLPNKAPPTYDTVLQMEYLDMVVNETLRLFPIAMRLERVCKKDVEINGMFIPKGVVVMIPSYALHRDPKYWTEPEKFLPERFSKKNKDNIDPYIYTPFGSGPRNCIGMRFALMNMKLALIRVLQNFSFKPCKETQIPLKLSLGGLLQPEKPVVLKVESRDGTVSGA

On to `C[C@H](c1ccc(F)cc1)n1cncc1CN1CCN(S(=O)(=O)c2cnc(N3CCC(S(C)(=O)=O)C3)s2)CC1` (some centres unmarked) [Compound 7], for which the IC50 at CYP3A4 is 0.0017 µM; at human CYP11B2 it was 16.3 µM.
